The target of the assay is T1, PARP1 (Homo sapiens, UniProt P09874).
T1 construct: endogenous in cells; host or cells: PC3
As to the kind of experiment: PARP1 trapping, chromatin fractionation (chromatin-bound fraction). The conditions noted are these: PC3 cells. The format is cell-based. The source says:
The trapped PARP1 forms a toxic lesion and stalls the progress of replication forks. The replication fork collapses in BRCA1/2-deficient cancer cells, and then results in cell death. […] Six cancer cell lines were used in this assay, including two breast cancer cell lines, BRCA1-mutunt SUM149PT-BRCA1mut and SUM149PT-BRCA1rev where deleterious BRCA1 mutation is reverted to form a functional BRCA1, two ovarian cancer cell lines, BRCA1-null UWB1.289 and UWB1.289+BRCA1, a stable cell line in which wild-type BRCA1 function has been restored, and two prostate cancer cell lines, enzalutamide resistant C4-2B/MR which is homologous recombination (HR)-deficient due to Rad51 mutation, and enzalutamide insensitive PC3 which is HR-proficient.

T1 sequence (P09874 whole entry, species assumed): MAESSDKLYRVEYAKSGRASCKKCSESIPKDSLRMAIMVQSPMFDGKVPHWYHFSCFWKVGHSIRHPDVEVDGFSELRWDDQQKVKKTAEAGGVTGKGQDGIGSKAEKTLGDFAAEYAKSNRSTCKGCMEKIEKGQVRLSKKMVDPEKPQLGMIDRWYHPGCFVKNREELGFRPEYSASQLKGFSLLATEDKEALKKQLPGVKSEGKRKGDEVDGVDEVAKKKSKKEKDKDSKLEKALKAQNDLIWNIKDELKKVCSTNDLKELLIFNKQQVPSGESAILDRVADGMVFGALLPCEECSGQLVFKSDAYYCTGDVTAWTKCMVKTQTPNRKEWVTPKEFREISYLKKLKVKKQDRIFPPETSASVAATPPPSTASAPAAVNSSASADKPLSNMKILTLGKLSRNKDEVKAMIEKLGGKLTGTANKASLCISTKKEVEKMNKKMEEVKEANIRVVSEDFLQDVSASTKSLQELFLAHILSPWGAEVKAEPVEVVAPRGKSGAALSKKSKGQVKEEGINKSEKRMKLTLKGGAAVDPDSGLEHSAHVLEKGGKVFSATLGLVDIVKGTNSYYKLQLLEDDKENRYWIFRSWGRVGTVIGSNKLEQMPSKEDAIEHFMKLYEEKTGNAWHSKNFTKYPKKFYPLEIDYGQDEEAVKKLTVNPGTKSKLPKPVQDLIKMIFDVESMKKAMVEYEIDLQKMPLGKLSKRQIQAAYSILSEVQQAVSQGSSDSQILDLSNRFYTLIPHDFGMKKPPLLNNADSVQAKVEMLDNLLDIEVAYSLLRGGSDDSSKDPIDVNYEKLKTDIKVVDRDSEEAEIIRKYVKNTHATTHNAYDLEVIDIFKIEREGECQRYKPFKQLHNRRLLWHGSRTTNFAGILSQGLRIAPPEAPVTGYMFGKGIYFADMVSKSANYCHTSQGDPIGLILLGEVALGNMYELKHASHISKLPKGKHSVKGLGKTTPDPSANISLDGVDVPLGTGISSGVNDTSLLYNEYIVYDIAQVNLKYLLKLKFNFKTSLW

As for `O=C1/C(=C/c2ccc(F)c(F)c2)CC(NC(=O)c2ccc(OCCN3CCC(C(F)(F)F)CC3)cc2)C/C1=C\c1ccc(F)c(F)c1` (stereo not shown) [JCS077, N-(3,5-bis((E)-3,4-difluorobenzylidene)-4-oxocyclohexyl)-4-(2-(4-(trifluoromethyl)piperidin-1-yl)ethoxy)benzamide], the “PARP1-trapping potency relative to JC099 (PARP1 in the chromatin-bound fraction)” value is listed as “increased the accumulation of PARP1 in the chromatin-bound fraction than JC099”. As to `O=C1/C(=C/c2ccc(F)c(F)c2)CC(NC(=O)c2ccc(NC(=O)N3CCCCC3)cc2)C/C1=C\c1ccc(F)c(F)c1` (stereo not shown) [JCS053, N-(4-((3,5-bis((E)-3,4-difluorobenzylidene)-4-oxocyclohexyl)carbamoyl)phenyl)piperidine-1-carboxamide], the “PARP1-trapping potency relative to JC099 (PARP1 in the chromatin-bound fraction)” value was “higher potency in PARP1-trapping”. In addition, the “PARP1 trapped on DNA lesions” value (0.3 μM) is given as “trapped”. With `CCOCCOc1ccc(C(=O)NC2C/C(=C\c3ccc(F)c(F)c3)C(=O)/C(=C/c3ccc(F)c(F)c3)C2)cc1` (stereo not shown) [JCS010, N-(3,5-Bis((E)-3,4-difluorobenzylidene)-4-oxocyclohexyl)-4-(2-ethoxyethoxy)benzamide], for the setting “0.5 μM and 2 μM”, the “PARP1 trapped on DNA lesions” value was “trapped”. For `CN1CCN(CCOc2ccc(C(=O)NC3C/C(=C\c4ccc(F)c(F)c4)C(=O)/C(=C/c4ccc(F)c(F)c4)C3)cc2)CC1` (stereo not shown) [JCS038, N-(3,5-Bis((E)-3,4-difluorobenzylidene)-4-oxocyclohexyl)-4-(2-(4-methylpiperazin-1-yl)ethoxy)benz-amide], the “PARP1 trapped on DNA lesions” value (0.3 μM) is recorded as “trapped”. For `C=CCN(CC=C)CCOc1ccc(C(=O)NC2C/C(=C\c3ccc(F)c(F)c3)C(=O)/C(=C/c3ccc(F)c(F)c3)C2)cc1` (stereo not shown) [JCS037, N-(3,5-Bis((E)-3,4-difluorobenzylidene)-4-oxocyclohexyl)-4-(2-(diallylamino)ethoxy)benzamide], the “PARP1 trapped on DNA lesions” value (0.5 μM) is “trapped”.

On to `COCCCNCCOc1ccc(C(=O)NC2C/C(=C\c3ccc(F)c(F)c3)C(=O)/C(=C/c3ccc(F)c(F)c3)C2)cc1` (stereo not shown) [JCS030, N-(3,5-Bis((E)-3,4-difluorobenzylidene)-4-oxocyclohexyl)-4-(2-((3-methoxypropyl)amino)ethoxy)-benzamide], for which, for the setting “0.5 μM”, the “PARP1 trapped on DNA lesions” value is reported as “trapped”. On to `O=C1/C(=C/c2ccc(F)c(F)c2)CC(NC(=O)c2ccc(NCCN3CCCCC3)cc2)C/C1=C\c1ccc(F)c(F)c1` (stereo not shown) [JCS028, N-(3,5-Bis((E)-3,4-difluorobenzylidene)-4-oxocyclohexyl)-4-((2-(piperidin-1-yl)ethyl)amino)-benzamide], for which the “PARP1 trapped on DNA lesions” value (0.5 μM and 2 μM) is recorded as “trapped”; the “PARP1 trapped on DNA lesions” value (0.5 μM) is listed as “trapped”. On to `O=C1/C(=C/c2ccc(F)c(F)c2)CC(NC(=O)c2ccc(NC(=O)N3CCN(C(=O)C4CC4)CC3)cc2)C/C1=C\c1ccc(F)c(F)c1` (stereo not shown) [JCS057, N-(4-((3,5-bis((E)-3,4-difluorobenzylidene)-4-oxocyclohexyl)carbamoyl)phenyl)-4-(cyclopropanecarbonyl)piperazine-1-carboxamide], for which the “PARP1 trapped on DNA lesions” value (0.3 μM) is “trapped”. Regarding `O=C1/C(=C/c2ccc(F)c(F)c2)CC(NC(=O)c2ccc(NCCN3CCN(Cc4ccccc4)CC3)cc2)C/C1=C\c1ccc(F)c(F)c1` (stereo not shown) [JCS087, 4-((2-(4-benzylpiperazin-1-yl)ethyl)amino)-N-(3,5-bis((E)-3,4-difluorobenzylidene)-4-oxocyclohexyl)benzamide], the “PARP1-trapping potency relative to JC099 (PARP1 in the chromatin-bound fraction)” value is recorded as “higher potency in PARP1-trapping”. With `CCCCCN(CCCCC)CCOc1ccc(C(=O)NC2C/C(=C\c3ccc(F)c(F)c3)C(=O)/C(=C/c3ccc(F)c(F)c3)C2)cc1` (stereo not shown) [JCS023, N-(3,5-Bis((E)-3,4-difluorobenzylidene)-4-oxocyclohexyl)-4-(2-(dipentylamino)ethoxy)benzamide], the “PARP1 trapped on DNA lesions” value is, setting by setting: (0.5 μM and 2 μM) “trapped”; (0.5 μM) “trapped”.

The record behind these values is patent publication US20260209193A1, “NOVEL INHIBITORS OF DNA DAMAGE RESPONSES FOR CANCER THERAPY” (The Regents of the University of California, priority 2022, published 2026).
